Test results as given in patent US12528792B2, “Sulfonamide compounds and the use thereof in the treatment of cancer” (TROBIO THERAPEUTICS PTY LTD, priority 2019, dated 2026).

Key:
A2780 (ovarian) cells = test: Anti-proliferative activity, Cell-Titre luminescent viability assay; assay type: cell-based; conditions: Homo sapiens, 72 h exposure, Cell-Titre luminescent reagent
Description: (§1) The ability of compounds of the disclosure to inhibit the proliferation of cancer cells representative of non-small cell lung cancer and ovarian cancer (Table 1), and pancreatic cancer, colorectal cancer and prostate cancer (Table 2) was assessed. Briefly, a predetermined number of cells as calculated from cell growth assays for each of the cell lines employed were seeded into their respective culture medium (using ATCC culture parameters—http://www.atcc.org) and cultured for 24 h at 37° C. and 5% CO2 in 96-well culture plates. Once attached, each cell line was then exposed to various concentrations of each respective analogue (100, 30, 10, 3, 1 and 0.3 µM or 30, 10, 3, 1, 0.3 and 0.1 μM), cultured for a further 72 h and exposed to Cell-Titre luminescent reagent (100 μL/well) for a further 30 min. Luminescence was captured using an EnVision multilabel reader and the data for each analogue concentration compared against no treatment control. Cell viability was normalised to control (vehicle alone) and dose response curves, and half maximal effective concentration (EC50) values were determined using Graph Pad Prism 6 (nonlinear regression sigmoidal dose-response variable slope).

A549 (NSCLC) cells = test: as above; assay type: cell-based; conditions: Homo sapiens, 72 h exposure, Cell-Titre luminescent reagent
Description: as §1

Compound	IC50 (A2780 (ovarian) cells) [µM]	IC50 (A549 (NSCLC) cells) [µM]
O=C(Nc1ccc(Cl)cc1)c1ccn(S(=O)(=O)c2ccc3[nH]ccc3c2)c1 [Compound 66, 1-((1H-indol-5-yl)sulfonyl)-N-(4-chlorophenyl)-1H-pyrrole-3-carboxamide]	13.6	15.9
O=C(Nc1ccc(F)cn1)c1ccn(S(=O)(=O)c2ccc3[nH]ccc3c2)c1 [Compound 72]	> 30	3.45
O=C(Nc1ccc(Cl)cc1)c1ccn(S(=O)(=O)c2ccc3[nH]ccc3c2)n1 [Compound 77, 1-((1H-indol-5-yl)sulfonyl)-N-(4-chlorophenyl)-1H-pyrazole-3-carboxamide]	> 30	19
COc1ccc(NC(=O)c2ccn(S(=O)(=O)c3ccc4[nH]ccc4c3)c2)cc1F [Compound 103, 1-((1H-indol-5-yl)sulfonyl)-N-(3-fluoro-4-methoxyphenyl)-1H-pyrrole-3-carboxamide]	> 30	> 30
O=C(Nc1ccc(F)cc1)c1ccn(S(=O)(=O)c2ccc3[nH]ccc3c2)n1 [Compound 76, 1-((1H-indol-5-yl)sulfonyl)-N-(4-fluorophenyl)-1H-pyrazole-3-carboxamide]	23.8	> 30
Cc1cccc(F)c1NC(=O)c1ccn(S(=O)(=O)c2ccc3[nH]ccc3c2)c1 [Compound 55, 1-((1H-indol-5-yl)sulfonyl)-N-(2-fluoro-6-methylphenyl)-1H-pyrrole-3-carboxamide]	> 30	> 30
O=C(Nc1ccc(Cl)nc1)c1ccn(S(=O)(=O)c2ccc3[nH]ccc3c2)c1 [Compound 75, 1-((1H-indol-5-yl)sulfonyl)-N-(6-chloropyridin-3-yl)-1H-pyrrole-3-carboxamide]	26.7	18.6
Cc1ccc(NC(=O)c2ccn(S(=O)(=O)c3cc(C(N)=O)n(C)c3)c2)cc1O [Compound 19, 4-((3-((3-hydroxy-4-methylphenyl)carbamoyl)-1H-pyrrol-1-yl)sulfonyl)-1-methyl-1H-pyrrole-2-carboxamide]	≥ 100	> 100
Cc1ccc(NC(=O)N2CCN(S(=O)(=O)c3cc(C(N)=O)n(C)c3)CC2)cc1O [Compound 10, 4-((5-carbamoyl-1-methyl-1H-pyrrol-3-yl)sulfonyl)-N-(3-hydroxy-4-methylphenyl)piperazine-1-carboxamide]	> 100	> 100
O=C(Nc1ccc(F)nc1)c1ccn(S(=O)(=O)c2ccc3[nH]ccc3c2)n1 [Compound 86, 1-((1H-indol-5-yl)sulfonyl)-N-(6-fluoropyridin-3-yl)-1H-pyrazole-3-carboxamide]	> 30	> 30
Cn1cc(S(=O)(=O)N2CCC(C(=O)NC3CCCCC3)CC2)cc1C(N)=O [Compound 31, 1-((5-carbamoyl-1-methyl-1H-pyrrol-3-yl)sulfonyl)-N-cyclohexylpiperidine-4-carboxamide]	> 100	> 100
CCC(C)c1ccc(NC(=O)c2ccn(S(=O)(=O)c3ccc(C(C)(C)C)cc3)c2)cc1 (stereo not shown) [Compound 91, N-(4-(sec-butyl)phenyl)-1-((4-(tert-butyl)phenyl)sulfonyl)-1H-pyrrole-3-carboxamide]	> 30	> 30
Cc1ccc(NC(=O)N2CCN(S(=O)(=O)c3ccc4c(c3)CCN4)CC2)cc1O [Compound 13, N-(3-hydroxy-4-methylphenyl)-4-(indolin-5-ylsulfonyl)piperazine-1-carboxamide]	> 100	> 100
COc1ccc(NC(=O)c2ccn(S(=O)(=O)c3ccc4[nH]ccc4c3)n2)cc1F [Compound 116, 1-((1H-indol-5-yl)sulfonyl)-N-(3-fluoro-4-methoxyphenyl)-1H-pyrazole-3-carboxamide]	> 30	13.4

The remaining compounds from weak to strong by IC50 (A2780 (ovarian) cells), led by results:

IC50 (A2780 (ovarian) cells) [µM]	IC50 (A549 (NSCLC) cells) [µM]	Compound
13.4	9.8	CCc1ccccc1NC(=O)c1ccn(S(=O)(=O)c2ccc3[nH]ccc3c2)c1 [Compound 42, 1-((1H-indol-5-yl)sulfonyl)-N-(2-ethylphenyl)-1H-pyrrole-3-carboxamide]
12.2	13.8	O=C(Nc1ccc(F)c(Cl)c1)c1ccn(S(=O)(=O)c2ccc3[nH]ccc3c2)c1 [Compound 70, 1-((1H-indol-5-yl)sulfonyl)-N-(3-chloro-4-fluorophenyl)-1H-pyrrole-3-carboxamide]
12.1	> 100	CCC(C)c1ccc(NCC2CCN(S(=O)(=O)c3cc(C(N)=O)n(C)c3)CC2)cc1 (stereo not shown) [Compound 33, 4-((4-(((4-(sec-butyl)phenyl)amino)methyl)piperidin-1-yl)sulfonyl)-1-methyl-1H-pyrrole-2-carboxamide]
11.8	10.7	Cc1cc(C)cc(NC(=O)c2ccn(S(=O)(=O)c3ccc4[nH]ccc4c3)c2)c1 [Compound 52, 1-((1H-indol-5-yl)sulfonyl)-N-(3,5-dimethylphenyl)-1H-pyrrole-3-carboxamide]
11.4	6.85	CC(C)Cc1ccc(NC(=O)c2ccn(S(=O)(=O)c3ccc4[nH]ccc4c3)n2)cc1 [Compound 111, 1-((1H-indol-5-yl)sulfonyl)-N-(4-isobutylphenyl)-1H-pyrazole-3-carboxamide]
10.5	16.1	O=C(Nc1ccc(F)c(Cl)c1)c1ccn(S(=O)(=O)c2ccc3[nH]ccc3c2)n1 [Compound 82, 1-((1H-indol-5-yl)sulfonyl)-N-(3-chloro-4-fluorophenyl)-1H-pyrazole-3-carboxamide]
10.5	5.93	CC(C)(C)c1ccc(NC(=O)c2ccn(S(=O)(=O)c3ccc4[nH]ccc4c3)n2)cc1F [Compound 114, 1-((1H-indol-5-yl)sulfonyl)-N-(4-(tert-butyl)-3-fluorophenyl)-1H-pyrazole-3-carboxamide]
9.85	5.44	CCC(C)c1ccc(NC(=O)c2ccn(S(=O)(=O)c3ccc4[nH]ccc4c3)n2)cc1F (stereo not shown) [Compound 106, 1-((1H-indol-5-yl)sulfonyl)-N-(4-(sec-butyl)-3-fluorophenyl)-1H-pyrazole-3-carboxamide]
9.33	> 30	O=C(Nc1ccc(Cl)c(F)c1)c1ccn(S(=O)(=O)c2ccc3[nH]ccc3c2)n1 [Compound 81, 1-((1H-indol-5-yl)sulfonyl)-N-(4-chloro-3-fluorophenyl)-1H-pyrazole-3-carboxamide]
8.81	5.11	CC(C)Cc1ccc(NC(=O)c2ccn(S(=O)(=O)c3ccc4[nH]ccc4c3)n2)cc1F [Compound 112, 1-((1H-indol-5-yl)sulfonyl)-N-(3-fluoro-4-isobutylphenyl)-1H-pyrazole-3-carboxamide]
8.31	10.7	CCCc1ccc(NC(=O)c2ccn(S(=O)(=O)c3ccc4[nH]ccc4c3)c2)cc1F [Compound 97, 1-((1H-indol-5-yl)sulfonyl)-N-(3-fluoro-4-propylphenyl)-1H-pyrrole-3-carboxamide]
5.07	13.2	CC(C)Cc1ccc(NC(=O)c2ccn(S(=O)(=O)c3ccc4[nH]ccc4c3)c2)cc1 [Compound 98, 1-((1H-indol-5-yl)sulfonyl)-N-(4-isobutylphenyl)-1H-pyrrole-3-carboxamide]
